Source: US12036289B2, “Gadolinium bearing PCTA-based contrast agents” (BRACCO IMAGING S.P.A., priority 2018, dated 2024)
Like-named read-outs stand apart in the source and are kept apart here. Marks after values point to notes of the source that are not given here.

How the values were obtained:
[1] = 1.0M HCl, 25° C.; literature value; cited from earlier work
[2] = 1.0M HCl (pH 0), 25° C.; literature value; cited from earlier work
[3] = Relaxometric properties: longitudinal relaxivity r1; format: physicochemical
Protocol: The relaxometric properties of the PCTA-based complex compounds according to the invention have been measured at different magnetic field strengths, i.e. 0.47 and 1.41 T, at 37° C. and in different media (water and human plasma) and compared with relaxivity values measured, at the same conditions, for Gd-Complex having an analogous coordination cage.
The longitudinal water proton relaxation rate (R1=1/T1) was measured at 0.47 T with a Minispec MQ-20 spectrometer (Bruker Biospin, Germany) operating at a proton Larmor frequency of 20 MHz; MR experiments at 1.41 T were performed using a Minispec MQ-60 spectrometer (Bruker Biospin, Germany) operating at a proton Larmor frequency of 60 MHz.
All test articles were used as supplied and diluted in the selected medium (water or human plasma) by weighting the required amount of paramagnetic chelated complex to get a 5 or 10 mM starting solution.
Five different concentration samples (0.1, 0.25, 0.5, 0.75 and 1 mM) for each medium have been prepared by further dilution of the starting 5 or 10 mM solution.
Relaxivity measurements were performed at 0.47 T and 1.41 T at a preset temperature sample of 37° C., kept constant by means of a thermostatic bath connected to the sample holder of the spectrometer. The five sample solutions have been preliminary pre-heated at 37° C. in an external thermostatic bath and then left 10 minutes inside the internal bath to assure the stabilization of the temperature. Longitudinal relaxation time T1 was measured by means of a standard inversion recovery sequence, where the inversion time (TI) was varied from 10 ms to at least 5 times T1 in 15 steps. Statistical analysis (mono-exponential fitting for T1 measurement, linear fitting for the evaluation of longitudinal relaxivity) was performed by Mathematica® (Wolfram, USA). Errors on the estimated parameters were evaluated by the fitting procedure.

[4] = pH 0
[5] = Acid catalyzed dissociation kinetics of Gadopiclenol (isomeric mixture) and of enantiomers pair C coupled with isoserinol in 1.0 M HCl, followed by HPLC; format: physicochemical; conditions: 1.0M HCl, 25° C.; fitting of area-time data
Protocol: The average half-life of the obtained conjugated compounds and of Gadopiclenol (isomeric mixture) were calculated considering the decrease of the HPLC total area over time as described in detail in Example 8. For amide derivatives obtained by reaction of RRR/SSS Gd(PCTA-tris-glutaric acid) with i) R-isoserinol; ii)S-isoserinol; and iii) racemic isoserinol the kX pseudo-first-order rate constants and half-lives (t1/2=ln 2/kX) were also calculated by fitting the area—time data pairs as carried out for RRR/SSS Gd(PCTA-tris-glutaric acid) in Example 7.
The HPLC measurements were performed with Thermo Finnigan LCQ DECA XPPlus system according to the analytical Procedure 2.
HPLC chromatogram of Gadopiclenol collected as isomeric mixture from Example 2 is characterized by the presence of 4 major peaks (identified for convenience as A′, B′, C′ and D′) having the same MS and UV-Vis spectra. However, there is only one signal in the HPLC chromatogram of the complex compounds obtained by coupling the enantiomers pair C with isoserinol, whether it is R, S isoserinol or racemic-isoserinol (FIG. 6). Since, as observed, the chirality of the isoserinol pendant has no influence on the retention time of coupled diastereoisomers, the presence of 4 signals in the HPLC chromatograms of Gadopiclenol (isomeric mixture) could be interpreted by the presence of 4 enantiomer pairs formed with the stereocenters of the of the glutaric acid residue: 1) RRR-SSS (Signal D′), 2) RSR-SRS, 3) RRS-SSR and 4) RSS-SRR.
The progress of the reactions was checked by HPLC over time, plotting the area values of the peaks of the complex as a function of time, as above discussed in Example 7 for Gd(PCTA-tris-glutaric acid) isomers.
As expected, the integral values of A′, B′, C′, and D′ decrease over time, whereas the peak of the free ligand increases. […] The half-life of complexes obtained by coupling the enantiomers pair C with R, S and racemic-isoserinol was also calculated from the half of the area values in the HPLC chromatograms.

[6] = cited from earlier work
[7] = cited from earlier work; remark: listed apart in the source

For `O=C([O-])CN1CCN(CC(=O)[O-])CCN(CC(=O)O)CCN(CC(=O)[O-])CC1.[Gd+3]` [Dotarem, Gd-DOTA], the “kx (s^−1) rate constant of acid catalyzed dissociation” value [1] is given as 8e-06 s⁻¹ and the “k1 (s^−1) rate constant of acid catalyzed dissociation” value [2] is given as 8e-06 s⁻¹.

In the case of RRR/SSS Gd(PCTA-tris-glutaric acid), the “r1 (mM^−1s^−1) H2O, 0.5T, 37° C.” value [3] was 9.3 ± 0.1 mM⁻¹ s⁻¹, the “r1 (mM^−1s^−1) H2O, 0.5T, 37° C.” value ([3]; listed as enantiomers pair C) was 9.3 ± 0.1 mM⁻¹ s⁻¹ and the “t1/2 (hour) dissociation half-life (t1/2 = ln2/kx)” value [4] was 120 ± 3 h.

With `O=C(CCC(C(=O)[O-])N1CCN(C(CCC(=O)NCC(O)CO)C(=O)[O-])Cc2cccc(n2)CN(C(CCC(=O)NCC(O)CO)C(=O)[O-])CC1)NCC(O)CO.[Gd+3]` (single isomer, unassigned) [Enantiomers pair C + R-isoserinol] the “kx (s^−1) pseudo-first-order rate constant of acid catalyzed dissociation” value [5] was “(4.9 ± 0.4) × 10^−6 s^−1”, the “r1 (mM^−1s^−1) H2O, 0.5T, 37° C.” value [3] was 12.9 ± 0.1 mM⁻¹ s⁻¹ and the “r1 (mM^−1s^−1) HSA, 1.5T, 37° C.” value [3] was 14.0 ± 0.3 mM⁻¹ s⁻¹.

For `O=C(CCC(C(=O)[O-])N1CCN(C(CCC(=O)NCC(O)CO)C(=O)[O-])Cc2cccc(n2)CN(C(CCC(=O)NCC(O)CO)C(=O)[O-])CC1)NCC(O)CO.[Gd+3]` (single isomer, unassigned) [Enantiomers pair C + racemic-isoserinol], the “kx (s^−1) pseudo-first-order rate constant of acid catalyzed dissociation” value [5] was “(4.5 ± 0.4) × 10^−6 s^−1”, the “r1 (mM^−1s^−1) H2O, 0.5T, 37° C.” value [3] was 13.0 ± 0.1 mM⁻¹ s⁻¹ and the “r1 (mM^−1s^−1) HSA, 1.5T, 37° C.” value [3] was 14.0 ± 0.2 mM⁻¹ s⁻¹.

For `O=C([O-])CN1CCN(CC(=O)[O-])Cc2cccc(n2)CN(CC(=O)[O-])CC1.[Eu+3]` [Eu(PCTA), europium complex of the 3,6,9,15-tetraazabicyclo[9.3.1]pentadeca-1(15),11,13-triene-3,6,9,-triacetic acid], the “kx (s^−1) rate constant of acid catalyzed dissociation” value [1] is given as 0.000508 s⁻¹ and the “k1 (s^−1) rate constant of acid catalyzed dissociation” value [2] is given as 0.000508 s⁻¹.

With `O=C(CCC(C(=O)[O-])N1CCN(C(CCC(=O)NCC(O)CO)C(=O)[O-])Cc2cccc(n2)CN(C(CCC(=O)NCC(O)CO)C(=O)[O-])CC1)NCC(O)CO.[Gd+3]` (single isomer, unassigned) [Enantiomers pair C + S-isoserinol] the “kx (s^−1) pseudo-first-order rate constant of acid catalyzed dissociation” value [5] was “(4.6 ± 0.3) × 10^−6 s^−1”, the “r1 (mM^−1s^−1) H2O, 0.5T, 37° C.” value [3] was 12.9 ± 0.2 mM⁻¹ s⁻¹ and the “r1 (mM^−1s^−1) HSA, 1.5T, 37° C.” value [3] was 13.9 ± 0.2 mM⁻¹ s⁻¹.

In the case of “gadolinium chelate of 2,2′,2″-(3,6,9-triaza-1(2,6)-pyridinacyclodecaphane-3,6,9-triyl)tris(5-((2,3-dihydroxypropyl)amino)-5-oxopentanoic acid) [Gadopiclenol (isomeric mixture)]”, the “stability (log K^term)” value ([6]; Investigative Radiology 2019, Vol 54, (8), 475-484) is listed as 18.7, the “thermodynamic equilibrium constant (log K^term)” value ([6]; reported in EP 2988756) is listed as 14.9 and the “r1 (mM^−1s^−1) H2O, 0.5T, 37° C.” value ([7]; H2O, 0.5T, 37° C., value reported in EP 1931673) is listed as 11* mM^−1s^−1. For the same molecule, the “r1 (mM^−1s^−1) HSA, 1.5T, 37° C.” value ([7]; HSA, 1.5T, 37° C., value reported in Invest. Radiol. 2015, 50, 835-842) was 12.8 ± 1.3** mM^−1s^−1, the relaxivity ([7]; in human serum (37° C., 1.41 T), Investigative Radiology 2019, Vol 54, (8), 475-484) was 12.8 mM⁻¹ s⁻¹ and the relaxivity ([7]; in water, at 0.5 T, 37° C., reported in EP1931673) was 11 mM^−1s^−1Gd^−1.
